pIC50: −log10 of the molar value. Blank lines part the entries; values can stand above or below the compound they belong to. Calls of active or inactive are those of the source. The calls are words filed in the database; no cut-off is given here.
Columns and labels:
MV4-11 [1] = assay: Induction of apoptosis in human MV4-11 cells assessed as necrotic cells at 10 nM incubated for 24 hrs by flow cytometry (reference value: 0.25%); type: functional
MV4-11 [2] = assay: Antiproliferative activity against human MV4-11 cells incubated for 72 hrs by Cell Counting Kit-8 assay; type: functional, cell-based; settings: MV4-11, 72 h
MV4-11 [3] = assay: Induction of cell cycle arrest in human MV4-11 cells assessed as accumulation at G2/M phase at 100 nM incubated for 24 hrs by flow cytometry (reference value: 7.29%); type: functional
MV4-11 [4] = assay: Induction of apoptosis in human MV4-11 cells assessed as early apoptotic cells at 10 nM incubated for 24 hrs by flow cytometry (reference value: 0.31%); type: functional
MV4-11 [5] = assay: Induction of apoptosis in human MV4-11 cells assessed as late apoptotic cells at 1 nM incubated for 24 hrs by flow cytometry (reference value: 0.58%); type: functional
MOLM-13 [6] = assay: Antiproliferative activity against human quizartinib-resistant MOLM-13 cells at 4 nM incubated for 72 hrs by CCK8 assay relative to control; type: functional
MV4-11 [7] = assay: Induction of apoptosis in human MV4-11 cells assessed as viable cells at 10 nM incubated for 24 hrs by flow cytometry (reference value: 98.86%); type: functional; settings: read-out: Activity
[8] = Toxicity in mouse xenografted with human MOLM-13 cells assessed as induction of cytoplasmic condensation at 40 mg/kg, po administered for 20 days by hematoxylin and eosin staining assay; type: organism-based; settings: in vivo, 480 h, time 20 day
MOLM-13 [9] = assay: Antiproliferative activity against human sunitinib-resistant MOLM-13 cells at 111 nM incubated for 72 hrs by CCK8 assay relative to control; type: functional
MV4-11 [10] = assay: Induction of cell cycle arrest in human MV4-11 cells assessed as accumulation at G1 phase at 10 nM incubated for 24 hrs by flow cytometry (reference value: 64.73%); type: functional
MOLM-13 [11] = assay: Antiproliferative activity against human quizartinib-resistant MOLM-13 cells at 37 nM incubated for 72 hrs by CCK8 assay relative to control; type: functional
MOLM-13 [12] = assay: Induction of apoptosis in human MOLM-13 cells assessed as early apoptotic cells at 10 nM incubated for 24 hrs by flow cytometry (reference value: 2.18%); type: functional
MOLM-13 [13] = assay: Induction of apoptosis in human MOLM-13 cells assessed as late apoptotic cells at 1 nM incubated for 24 hrs by flow cytometry (reference value: 4.54%); type: functional
MOLM-13 [14] = assay: Induction of cell cycle arrest in human MOLM-13 cells assessed as accumulation at S phase at 1 nM incubated for 24 hrs by flow cytometry (reference value: 16.28%); type: functional
MOLM-13 [15] = assay: Induction of cell cycle arrest in human MOLM-13 cells assessed as accumulation at S phase at 100 nM incubated for 24 hrs by flow cytometry (reference value: 16.28%); type: functional
[16] = MRT (0 to last) in Sprague-Dawley rat at 1 mg/kg, iv; type: ADME, organism-based; settings: in vivo
[17] = Oral bioavailability in Sprague-Dawley rat at 10 mg/kg; type: ADME, organism-based; settings: in vivo
[18] = Toxicity in mouse xenografted with human MV4-11 cells assessed as effect on lung at 2.5 to 10 mg/kg, po administered for 16 days by hematoxylin and eosin staining assay; type: organism-based; settings: in vivo, 384 h, dose 2.5-10 mg/kg, time 16 day
MOLM-13 [19] = assay: Induction of cell cycle arrest in human MOLM-13 cells assessed as accumulation at G2/M phase at 1 nM incubated for 24 hrs by flow cytometry (reference value: […]); type: functional
[20] = target: Receptor-type tyrosine-protein kinase FLT3 (Homo sapiens) (UniProt P36888); assay: Inhibition of FLT3 in human MOLM-13 cells assessed as reduction in autophosphorylation at tyr589/591 residue incubated for 2 hrs by Western blot analysis; type: cell-based
MOLM-13 [21] = assay: Induction of cell cycle arrest in human MOLM-13 cells assessed as accumulation at G2/M phase at 10 nM incubated for 24 hrs by flow cytometry (reference value: […]); type: functional
[22] = target: Receptor-type tyrosine-protein kinase FLT3 (Homo sapiens) (UniProt P36888); assay: Binding affinity to FLT3 (unknown origin) at 1000 nM relative to control
MV4-11 [23] = assay: Antitumor activity against human MV4-11 cells xenografted in mouse assessed as tumor growth inhibition at 2.5 mg/kg, po administered for 20 days measured once every 2 days relative to control; type: functional; settings: MV4-11, po, 480 h, time 20 day, read-out: TGI
MOLM-13 [24] = assay: Antiproliferative activity against human quizartinib-resistant MOLM-13 cells at 333 nM incubated for 72 hrs by CCK8 assay relative to control; type: functional
[25] = Cmax in Sprague-Dawley rat at 10 mg/kg, po; type: ADME, organism-based; parameters: route oral, dose 10 mg/kg; settings: in vivo
[26] = AUC (0 to infinity) in Sprague-Dawley rat at 1 mg/kg, iv; type: ADME, organism-based; parameters: route intravenous, time infinity, dose 1 mg/kg; settings: in vivo
[27] = target: Mast/stem cell growth factor receptor Kit (Homo sapiens, UniProt P10721); assay: Inhibition of c-KIT (unknown origin) incubated for 30 mins in presence of ATP by mobility shift assay
[28] = system: Receptor-type tyrosine-protein kinase FLT3 (Homo sapiens), P36888 [R834Q]; assay: Binding affinity to FLT3 R834Q mutant (unknown origin) at 1000 nM relative to control
MOLM-13 [29] = assay: Antitumor activity against human MOLM-13 cells xenografted in po dosed mouse assessed as inhibition of tumor cell proliferation administered for 16 days measured once for every 2 days by Ki67 staining based immunohistochemical analysis; type: functional, organism-based; settings: time 16.0 day
MOLM-13 [30] = assay: Antitumor activity against human MOLM-13 cells xenografted in po dosed mouse assessed as induction of apoptosis administered for 16 days measured once for every 2 days by caspase3 staining based immunohistochemical analysis; type: functional, organism-based; settings: time 16.0 day
MDA-MB-231 = assay: Antiproliferative activity against human MDA-MB-231 cells measured after 72 hrs by CCK8 assay; type: functional, cell-based; settings: MDA-MB-231, 72 h
[31] = target: Receptor-type tyrosine-protein kinase FLT3 (Homo sapiens) (UniProt P36888); assay: Inhibition of FLT3 in human MV4-11 cells assessed as suppression of autophosphorylation at tyr589/591 residue at 10 uM incubated for 2 hrs by Western blot analysis; type: cell-based; parameters: scale not given: the % may be the effect or the level left
Homo sapiens = organism: Homo sapiens; assay: Binding affinity to FLT3 ITD D835V mutant (unknown origin) at 1000 nM relative to control
THP-1 = assay: Antiproliferative activity against human THP-1 cells measured after 72 hrs by CCK8 assay; type: functional, cell-based; settings: THP-1, 72 h
MOLM-13 [32] = assay: Induction of apoptosis in human MOLM-13 cells assessed as early apoptotic cells at 1 nM incubated for 24 hrs by flow cytometry (reference value: 2.18%); type: functional
MV4-11 [33] = assay: Induction of cell cycle arrest in human MV4-11 cells assessed as accumulation at sub-G1 phase at 1 nM incubated for 24 hrs by flow cytometry (reference value: […]%); type: functional
[34] = Toxicity in mouse xenografted with human MOLM-13 cells assessed as effect on spleen at 10 to 40 mg/kg, po administered for 20 days by hematoxylin and eosin staining assay; type: organism-based; settings: in vivo, 480 h, dose 10-40 mg/kg, time 20 day
[35] = AUC (0 to infinity) in Sprague-Dawley rat at 10 mg/kg, po; type: ADME, organism-based; parameters: route oral, time infinity, dose 10 mg/kg; settings: in vivo
HCT-116 = assay: Antiproliferative activity against human HCT116 cells measured after 72 hrs by CCK8 assay; type: functional, cell-based; settings: HCT-116, 72 h

Mast/stem cell growth factor receptor Kit, sequence (P10721 whole entry): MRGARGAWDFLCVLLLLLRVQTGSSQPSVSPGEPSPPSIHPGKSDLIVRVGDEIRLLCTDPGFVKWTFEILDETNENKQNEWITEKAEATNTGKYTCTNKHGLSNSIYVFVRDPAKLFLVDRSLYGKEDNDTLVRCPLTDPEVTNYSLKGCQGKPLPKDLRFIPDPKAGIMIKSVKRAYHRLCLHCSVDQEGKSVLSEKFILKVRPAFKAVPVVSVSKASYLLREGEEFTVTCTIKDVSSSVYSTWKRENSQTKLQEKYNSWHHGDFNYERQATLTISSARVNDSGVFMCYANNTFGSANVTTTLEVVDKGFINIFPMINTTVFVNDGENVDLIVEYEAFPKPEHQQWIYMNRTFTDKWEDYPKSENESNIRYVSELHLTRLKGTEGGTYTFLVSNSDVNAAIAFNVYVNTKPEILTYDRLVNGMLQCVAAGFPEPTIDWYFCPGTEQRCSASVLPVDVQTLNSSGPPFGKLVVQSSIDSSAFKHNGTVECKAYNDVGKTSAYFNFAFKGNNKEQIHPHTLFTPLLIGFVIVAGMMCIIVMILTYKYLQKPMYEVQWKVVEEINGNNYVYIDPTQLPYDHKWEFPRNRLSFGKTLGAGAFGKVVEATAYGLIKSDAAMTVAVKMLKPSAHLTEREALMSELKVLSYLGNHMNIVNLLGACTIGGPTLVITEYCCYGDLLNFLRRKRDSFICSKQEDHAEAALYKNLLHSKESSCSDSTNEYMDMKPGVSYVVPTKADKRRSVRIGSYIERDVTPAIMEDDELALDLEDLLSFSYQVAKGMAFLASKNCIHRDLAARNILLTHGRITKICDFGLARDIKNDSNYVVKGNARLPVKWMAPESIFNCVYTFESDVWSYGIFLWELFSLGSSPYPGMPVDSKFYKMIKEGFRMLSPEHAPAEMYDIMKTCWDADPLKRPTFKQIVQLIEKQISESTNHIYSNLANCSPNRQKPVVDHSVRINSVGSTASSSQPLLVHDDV

pIC50 (MV4-11 [2]): 7.50
Compound: CCN(CC)CCNC(=O)c1c(C)[nH]c(/C=C2\C(=O)Nc3ccc(F)cc32)c1C [SUNITINIB]
Activity (MV4-11 [1]): 1.22%
Activity (MV4-11 [3]): 2.68%
Activity (MV4-11 [4]): 2.79%
Activity (MV4-11 [5]): 1.03%
Activity (MOLM-13 [6]): -0.6%
viability at 0.01 µM (MV4-11 [7]): 89.4%
Activity [8]: Toxic
Activity (MOLM-13 [9]): 1.3%
Activity (MV4-11 [10]): 68.1%
Activity (MOLM-13 [11]): -0.5%
Activity (MOLM-13 [12]): 19.36%
Activity (MOLM-13 [13]): 3.32%
Activity (MOLM-13 [14]): 16.42%

pIC50 (MV4-11 [2]): 7.63
MRT last [16]: 4 h
bioavailability [17]: 73.6%
Activity [20]: Dose-Dependent Effect
Activity [22]: Active
Cmax [25]: 1880 ng/mL
AUC(0-inf) [26]: 2970 ng·h/mL
pIC50 [27]: < 6.00
Activity [28]: Active
pIC50 (MDA-MB-231): 5.74
Activity [31]: 100%
Activity (Homo sapiens): Active
pIC50 (THP-1): 5.50
AUC(0-inf) [35]: 22700 ng·h/mL
pIC50 (HCT-116): 5.40
Compound: Cc1c(NC(=O)CCN2CCCC2)c[nH]c1/C=C1\C(=O)Nc2ccc(F)cc21
Activity (MOLM-13 [15]): 4.16%
Activity (MV4-11 [1]): 1.93%
Activity (MV4-11 [3]): 2.51%
Activity (MV4-11 [4]): 3.5%
Activity (MV4-11 [5]): 0.99%
Activity [18]: Non-Toxic
Activity (MOLM-13 [19]): 7.13%
Activity (MOLM-13 [6]): 3.3%
Activity (MOLM-13 [21]): 2.32%
inhibition in vivo at 2.5 mg/kg (MV4-11 [23]): 55.7%
Activity (MOLM-13 [24]): 13.4%
viability at 0.01 µM (MV4-11 [7]): 88%
Activity (MOLM-13 [9]): 4.9%
Activity (MOLM-13 [29]): Dose-Dependent Effect
Activity (MOLM-13 [30]): Dose-Dependent Effect
Activity (MV4-11 [10]): 66.28%
Activity (MOLM-13 [11]): 3.8%
Activity (MOLM-13 [12]): 22.66%
Activity (MOLM-13 [13]): 4.3%
Activity (MOLM-13 [32]): 3.69%
Activity (MV4-11 [33]): 13.92%
Activity [34]: Non-Toxic
Activity (MOLM-13 [14]): 15.09%

— ChEMBL document CHEMBL4823252 (J Med Chem, 2021)
